# According to patent US11371097B2, “Articles for diagnosis of liver fibrosis” (THE GOVERNMENT OF THE UNITED STATES, as represented by THE …, priority 2015, dated 2022):
# Where “and” joins values, the source holds several entries; their conditions need not be identical. Identical values can stand only once.
# Experiments:
# [1] = system: 67 genes on the fibrosis gene panel; assay: Multiplexed fibrosis gene panel (QuantiGene 2.0 Plex / Bioplex) on liver RNA; conditions: liver RNA, individual animals; Carbon Tetrachloride 200, Bromobenzene 785, Dexamethasone 1 mg/kg
# Protocol: mRNA is isolated and purified from lysed tissue biopsy specimens. The target mRNA is incubated with beads conjugated to capture probes (each probe is an oligonucleotides specific for one of the genes in the panel). The target is hybridized to the probe by a capture extender-capture probe interaction. Specific mRNA targets hybridize overnight to the respective beads. The signal is amplified by incubating mRNA-capture probe pairs by affixing an amplifier affixed to a biotinylated label probe. Streptavidin-conjugated phycoerythrin (SAPE) is bound to the biotinylated probe to amplify the signal. The signal is detected and quantified by Bioplex suspension array instrumentation, which measures the SAPE fluorescence signal proportional to the amount of mRNA transcripts captured by the bead.
# Candidate genes identified by co-expression modules and pathway/network approaches were fabricated into a custom gene panel using a commercial source (the QuantiGene 2.0 Plex assay, Affymetrix, Santa Clara, Calif.). A total of 71 genes plus 3 housekeeping genes were selected. Using 150 ng RNA input, samples were processed following manufacturer's instructions for purified RNA with use of the HandHeld Magnetic Plate Washer. Plates were read immediately following the final wash using the BioPlex 200 instrument (BioRad, Hercules, Calif.). The following parameters were set on the BioPlex instrument: sample size=100 μL; DD Gate=5,000-25,000; Timeout=45 sec; Bead Event/Bead Region=100.
# For each sample, the average signal intensity was determined as recommended by the manufacturer. Duplicates were averaged. The average background signal for each gene was subtracted. Assay limit of detection was determined by adding three standard deviations of assay background signals to the average intensity of the background control wells. All intensities lower than the limit of detection for each probe was set to one unit above the probe's limit of detection. Probes with all intensities below the assay limit of detection were removed from the final analysis. The test gene signal was divided by the average intensities of the three normalization genes (Gapdh, Hprt1, Ppib). For each test gene, the fold change was calculated by dividing the normalized value for the treated samples by the normalized value of the vehicle-treated controls. Fold changes were plotted as log2 fold change. Gene expression data were imported into Partek Genomics Suite 6.0 (Partek, Inc., St. Louis, Mo.). Principal component analysis was used for multivariate interpretation to determine sources of variation across sample groups (Joliffe I T, Morgan B J. Principal component analysis and exploratory factor analysis. Statistical methods in medical research 1992; 1(1):69-95). Differentially expressed genes were determined by analysis of variance (ANOVA) with contrasts, setting the ANOVA factors as toxicant and the histopathological endpoint of fibrosis (any score >0). ANOVA variables were fibrosis score 0 (none) vs. score of >0 (minimal, mild, moderate, and marked). For hierarchical biclustering, differentially expressed genes were standardized by setting the genes expressed to a mean of zero and scaling to a standard deviation of one. Euclidean geometry was used to cluster row and column dissimilarity using a method of average linkage.
# Chemical-dose groups were down-selected based on histopathology to conform to the 96-well assay format of the multiplexed panel of presumptive fibrosis genes. Three of the four dose groups were evaluated for the fibrogenic chemicals allyl alcohol and 4,4′-methylenedianiline. A single dose was selected with group-matched vehicle controls for each of the remaining chemicals. […] The highest dose of bromobenzene was selected because the vacuolation pathology was only observed at this dose.
# Isolated liver RNA was incubated with microbead-bound capture probes specific for the 71 presumptive fibrogenic genes and three housekeeping normalization genes.
# [2] = system: Tgfb1; assay: qPCR of liver RNA: Tgfb1; assay type: in vivo, Male Sprague-Dawley rats
# In short: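 Liver total RNA (1 μg) reverse-transcribed; SYBR Green qPCR, 40 cycles, comparative CT normalised to Gapdh and Actb. Fold change tested against 1.0 by one-sample t-test; dose groups compared by Kruskal-Wallis with Dunnett's test, p<0.05.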
smiles,measurement,setting,value
C[C@@H]1C[C@H]2[C@@H]3CCC4=CC(=O)C=C[C@]4(C)[C@@]3(F)[C@@H](O)C[C@]2(C)[C@@]1(O)C(=O)CO [dexamethasone],Differential Expression of A2m,[1],−1.370 and −0.649 and −0.615 and −0.252
same,Differential Expression of Angptl3,[1],0.029 and −0.467 and −0.241
same,Differential Expression of Anxa2,[1],0.519 and 0.194 and −0.132 and 0.293
same,Differential Expression of Apoc,[1],−0.250 and −0.067 and −0.469 and −0.542
same,Differential Expression of Arf6,[1],−0.268 and −0.346 and −0.401 and 0.005
same,Differential Expression of Arpc1b,[1],−1.391 and −2.770 and −5.994 and −0.172
same,Differential Expression of Arrb1,[1],−0.840 and −2.152 and −3.043 and 0.703
same,Differential Expression of C1qb,[1],−0.174 and −0.655 and −0.257 and −0.222
same,Differential Expression of CD9,[1],0.155 and −0.656 and −0.280 and 0.387
same,Differential Expression of CD53,[1],−0.716 and −3.901 and −5.862 and 0.006
same,Differential Expression of CP,[1],−0.134 and −0.634 and −0.952 and −0.558
same,Differential Expression of Capg,[1],−0.558 and −0.744 and −0.772 and −0.404
same,Differential Expression of Ccl2,[1],−0.272 and 0.250 and 0.043 and 1.019
same,Differential Expression of Col1a1,[1],−4.640 and −3.775 and −5.473 and −0.928
same,Differential Expression of Col1a2,[1],−0.960 and −1.057 and −2.208 and −1.081
same,Differential Expression of Col4a1,[1],−1.039 and −1.035 and −1.397 and −0.880
same,Differential Expression of Col5a2,[1],−0.407 and −0.910 and −2.382 and 0.311
same,Differential Expression of Ctgf,[1],−0.755 and 0.747 and −0.663 and 0.405
same,Differential Expression of Cxcl1,[1],0.104 and 1.127 and 0.364 and 0.097
same,Differential Expression of Cxcl12,[1],−1.808 and −3.742 and −2.144 and −1.869
same,Differential Expression of Cxcl16,[1],−0.537 and −4.885 and 0.714
same,Differential Expression of Cyba,[1],−0.998 and −1.793 and −1.244 and −0.956
same,Differential Expression of Dsc2,[1],−0.209 and −0.593 and −0.466 and −0.248
same,Differential Expression of Fam102b,[1],−0.462 and −0.124 and −0.822 and −0.262
same,Differential Expression of Fam105a,[1],−0.295 and 0.195 and −0.809 and −0.294
same,Differential Expression of Fbn1,[1],−1.213 and −1.784 and −2.160 and −1.736
same,Differential Expression of Fn1,[1],0.397 and 0.181 and −0.334 and −0.170
same,Differential Expression of Fstl1,[1],−1.085 and −1.346 and −1.183 and −0.931
same,Differential Expression of Fxyd5,[1],−0.247 and −0.412 and −0.305
same,Differential Expression of Gpnmb,[1],−0.018 and 1.304 and 0.968 and 1.447
same,Differential Expression of Igfals,[1],−0.678 and −2.820 and −1.013 and −1.310
same,Differential Expression of Igfbp1,[1],1.132 and 1.740 and 0.780 and 0.489
same,Differential Expression of Igfbp2,[1],−0.258 and −0.949 and −1.156 and −0.041
same,Differential Expression of Igfbp3,[1],−1.125 and −1.454 and −2.523 and −1.663
same,Differential Expression of Itga1,[1],−2.088 and −3.379 and −2.849 and −1.903
same,Differential Expression of Itgb2,[1],−1.330 and −2.265 and −1.982 and −0.802
same,Differential Expression of Lame2,[1],−0.132 and 0.260 and −1.038 and 0.536
same,Differential Expression of Lbp,[1],0.344 and −0.042 and 0.261 and −0.020
same,Differential Expression of Len2,[1],−0.470 and 0.418 and 0.883 and 0.535
same,Differential Expression of Lgals1,[1],0.458 and −4.140 and −0.346 and 0.583
same,Differential Expression of Lgals3,[1],0.011 and 0.320 and 0.370 and 0.526
same,Differential Expression of Lgals3bp,[1],−1.477 and −0.782 and −1.281 and −0.669
same,Differential Expression of Lox,[1],0.278 and 0.412 and −0.164
same,Differential Expression of Lrp1,[1],−0.206 and −0.631 and −0.863 and −0.371
same,Differential Expression of Lum,[1],0.593 and 0.401 and −0.997 and −0.078
same,Differential Expression of Mmp2,[1],−0.245 and −1.273 and −0.990 and −0.583
same,Differential Expression of Nid1,[1],−1.271 (2×) and −1.374 and −1.155
same,Differential Expression of Pcolce,[1],−1.293 and −1.196 and −1.572 and −0.246
same,Differential Expression of Pkm2,[1],−0.668 and −0.611 and −0.735 and −0.472
same,Differential Expression of Plat,[1],0.103 and 0.075 and −0.461 and −0.335
same,Differential Expression of Plau,[1],−0.719 and −2.088 and −1.424 and −0.095
same,Differential Expression of Plod2,[1],−0.065 and 0.269 and −0.568 and −0.077
same,Differential Expression of RT1-DMa,[1],3.152 and 2.497 and 3.371 and 2.417
same,Differential Expression of RT1-Da,[1],−4.927 and −7.563 and −4.272 and −3.443
same,Differential Expression of S100A6,[1],0.650 and −0.047 and 0.843 and 0.695
same,Differential Expression of S100A11,[1],−0.377 and −0.570 and −0.732 and −0.465
same,Differential Expression of Serpine1,[1],0.251 and 1.560 and 0.110 and 0.038
same,Differential Expression of Serping1,[1],0.154 and 0.026 and −0.228 and 0.065
same,Differential Expression of Slc25a24,[1],−0.387 and −0.565 and −0.427
same,Differential Expression of Sod2,[1],−0.398 and −0.428 and −0.371 and −0.367
same,Differential Expression of TagIn2,[1],−0.486 and −0.918 and −0.563 and −0.566
same,Differential Expression of Tgfb1,[1],−1.193 and −1.526 and −1.328 and −1.429
same,Differential Expression of Timp1,[1],0.026 and 0.464 and −0.134 and 1.004
same,Differential Expression of Vhl,[1],−0.300 and −1.037 and −0.787 and 0.504
same,Differential Expression of Vim,[1],−0.856 and −1.292 and −1.277
same,Differential Expression of Vtn,[1],−0.111 and −0.294 and −0.579 and −0.572
same,Tgfb1 gene expression by qPCR,[2]; 44.8 mg/kg,the difference was not statistically significant
same,Tgfb1 gene expression by qPCR,"[2]; 1, 6.7, or 300 mg/kg",significantly downregulated
same,Tgfb1 gene expression by qPCR,"[2]; liver, across dose groups, vs control",decreased gene expression
